Results taken from patent publication US20240383831A1, “ALKOXYLATION OF CANNABIDIOL AND OTHER CANNABINOIDS” (Indorama Ventures Oxides LLC, priority 2021, published 2024).

Assays:
Assay type in all cases: physicochemical
[1] = Cloud point, 5 wt % actives in water
Text: (§1) The alkoxylated product that results from the above reaction conditions can be characterized using common analytical techniques, including hydroxyl value, melting point, unreacted cannabinoid (wt %), cloud point (5 wt % in water), pH (5 wt % in water), ^1H NMR-structural analysis, and appearance. Comparisons between a cannabinoid and its alkoxylated form (such as CBD and e-CBD in EXAMPLE 1 below) are made in Table 1 exemplifying how the e-CBD having a (POE) value of 12 behaves differently as compared to its non-ethoxylated precursor. While these properties are strongly dependent on the number of moles of EO used in relation to the equivalents of CBD, in order to obtain a water soluble or dispersible product, the number of moles of EO in the e-CBD may be between about 1-100, more preferably between about 10-25.

[2] = Water solubility of e-CBD compounds, 5 wt % actives in water
Text: as §1
By varying the molar ratio of the epoxide-to-cannabinoid starter compound to produce a product having a (POE) value between 7 and 36, the hydrophilicity of the cannabinoid may be tuned (see Table 2). The water solubility of the alkoxylated-CBD compounds (Examples 1-4) was determined at room (25° C.) and physiological (37° C.) temperatures.

[3] = pH of 5 wt % in water
Text: as §1

C=C(C)[C@@H]1CCC(C)=C[C@H]1c1c(O)cc(CCCCC)cc1O [CBD, cannabidiol]
Insoluble: Cloud Point (° C., 5 wt % actives in water) [1] | Water Solubility (5 wt % in water at 37° C.) ([2]; Table 1, 5 wt % in water, 37° C.) | Water Solubility (5 wt % actives in water at 25° C.) ([2]; Table 2, 5 wt % actives in water, 25° C. (room temperature)) | Water Solubility (5 wt % actives in water at 37° C.) ([2]; Table 2, 5 wt % actives in water, 37° C. (physiological temperature)) | pH (5 wt % in water at 25° C.) [3]
